Results as given in patent publication US10144706B2 (BRISTOL-MYERS SQUIBB COMPANY, priority 2016, dated 2018).
Structures can show the parent of a compound that is named as a salt.

Biological target: T1, PD-1/PD-L1 interaction (PD-1-Ig / PD-L1-His) (Homo sapiens, UniProt Q9NZQ7)
T1 construct: hPDL1(18-239)-TVMV-His; TVMV protease site linker (C); made in house; host or cells: HEK293T
Assay: PD-1/PD-L1 Homogenous Time-Resolved Fluorescence (HTRF) binding assay
Conditions: IC50 range class; PD-L1-His 10 nM, PD-1-Ig 20 nM; read-out: Range or IC50
How it was run: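 Human PD-L1-His (10 nM final) was pre-incubated with inhibitor for 15 min, then PD-1-Ig (20 nM final) was added for a further 15 min in dPBS with 0.1% BSA and 0.05% Tween-20. Binding was detected by HTRF using Eu-cryptate anti-Ig (1 nM) and APC anti-His (20 nM).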

T1 sequence (Q9NZQ7 with tags, fused parts or gaps): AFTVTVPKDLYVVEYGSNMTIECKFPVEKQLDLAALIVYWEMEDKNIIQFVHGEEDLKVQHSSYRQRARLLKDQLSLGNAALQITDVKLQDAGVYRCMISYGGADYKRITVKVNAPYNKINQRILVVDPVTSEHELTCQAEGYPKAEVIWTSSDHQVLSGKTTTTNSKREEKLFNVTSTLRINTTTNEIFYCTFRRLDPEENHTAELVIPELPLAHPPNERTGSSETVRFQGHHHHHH

An IC50 of over 10000 nM was found for `Cc1c(NC(=O)NCCC(=O)O)cccc1-c1cccc(OCCCN2CC[C@@H](O)C2)c1C` [Example 3014, (R)-3-(3-(3′-(3-(3-hydroxypyrrolidin-1-yl)propoxy)-2,2′-dimethyl-[1,1′-biphenyl]-3-yl)ureido)propanoic acid] in this work.
An IC50 of 20.1 to 90 nM was found for `CC(=O)NCCNCCCOc1cccc(-c2cccc(OCCCN3CC[C@@H](O)C3)c2C)c1C` [Example 2048, (R)—N-(2-((3-((3′-(3-(3-hydroxypyrrolidin-1-yl)propoxy)-2,2′-dimethyl-[1,1′-biphenyl]-3-yl)oxy)propyl)amino)ethyl)acetamide] in this work.
An IC50 of 0.04 to 20 nM was found for `Cc1c(COc2cc(OCc3cncc(C#N)c3)c(CNCCC(=O)O)cc2Cl)cccc1-c1cccc(COc2cc(OCc3cncc(C#N)c3)c(CNCCC(=O)O)cc2Cl)c1C` [Example 40410] in this work.
An IC50 of 0.04 to 20 nM was found for `Cc1c(OCCCNC[C@H](O)CO)cccc1-c1cccc(OCCCN(CCc2cccnc2)C[C@H](O)CO)c1C` [Example 2103, (S)-3-((3-((3′-(3-(((S)-2,3-dihydroxypropyl)(2-(pyridin-3-yl)ethyl)amino)propoxy)-2,2′-dimethyl-[1,1′-biphenyl]-3-yl)oxy)propyl)amino)propane-1,2-diol] in this work.
An IC50 of 0.04 to 20 nM was found for `COc1cc(OCc2cccc(-c3cccc(COc4cc(OC)c(CNCc5cc[nH]n5)cc4Cl)c3C)c2C)c(Cl)cc1CNCc1cc[nH]n1` [Example 5032, 1,1′-((((2,2′-dimethyl-[1,1′-biphenyl]-3,3′-diyl)bis(methylene))bis(oxy))bis(5-chloro-2-methoxy-4,1-phenylene))bis(N-((1H-pyrazol-3-yl)methyl)methanamine)] in this work.
An IC50 of 90.1 to 1000 nM was found for `Cc1c(OCCCN2CCN(c3ccccn3)CC2)cccc1-c1cccc(OCCCN2CC[C@@H](O)C2)c1C` [Example 2108, (R)-1-(3-((2,2′-dimethyl-3′-(3-(4-(pyridin-2-yl)piperazin-1-yl)propoxy)-[1,1′-biphenyl]-3-yl)oxy)propyl)pyrrolidin-3-ol] in this work.
An IC50 of 1000 to 10000 nM was found for `Cc1c(OCCCN2CC[C@@H](O)C2)cccc1-c1cccc(C(=O)NCCCCN2CC[C@@H](O)C2)c1C` [Example 3008, N-(4-((R)-3-hydroxypyrrolidin-1-yl)butyl)-3′-(3-((R)-3-hydroxypyrrolidin-1-yl)propoxy)-2,2′-dimethyl-[1,1′-biphenyl]-3-carboxamide] in this work.
An IC50 of 20.1 to 90 nM was found for `COc1cc(OCc2cccc(-c3cccc(COc4cc(OC)c(CNCc5cncs5)cc4Cl)c3C)c2C)c(Cl)cc1CNCc1cncs1` [Example 5034, 1,1′-((((2,2′-dimethyl-[1,1′-biphenyl]-3,3′-diyl)bis(methylene))bis(oxy))bis(5-chloro-2-methoxy-4,1-phenylene))bis(N-(thiazol-5-ylmethyl)methanamine)] in this work.
An IC50 of 90.1 to 1000 nM was found for `Cc1c(OCCCN[C@@](C)(CO)C(=O)O)cccc1-c1cccc(OCCCN2CC[C@@H](O)C2)c1C` [Example 2013, (S)-3-hydroxy-2-((3-((3′-(3-((R)-3-hydroxypyrrolidin-1-yl)propoxy)-2,2′-dimethyl-[1,1′-biphenyl]-3-yl)oxy)propyl)amino)-2-methylpropanoic acid] in this work.
An IC50 of 0.04 to 20 nM was found for `CC(=O)c1cc(Cl)c(OCc2cccc(-c3cccc(COc4cc(OCc5cncc(C#N)c5)c(CNC(C)(CO)C(=O)O)cc4Cl)c3Cl)c2Cl)cc1OCc1cncc(C#N)c1` (stereo not shown) [Example 60060] in this work.
An IC50 of 20.1 to 90 nM was found for `Cc1c(OCCCNCCN2CCOCC2)cccc1-c1cccc(OCCCN2CC[C@@H](O)C2)c1C` [Example 2005, (R)-1-(3-((2,2′-dimethyl-3′-(3-((2-morpholinoethyl)amino)propoxy)-[1,1′-biphenyl]-3-yl)oxy)propyl)pyrrolidin-3-ol] in this work.
An IC50 of 0.04 to 20 nM was found for `CCC[C@@H](C(=O)O)N(C)Cc1cc(Cl)c(OCc2cccc(-c3cccc(COc4cc(OCc5ccc(-n6cccn6)nc5)c(CN(C)[C@@H](CCC)C(=O)O)cc4Cl)c3C)c2C)cc1OCc1ccc(-n2cccn2)nc1` [Example 5026, (2S,2′S)-2,2′-((((((2,2′-dimethyl-[1,1′-biphenyl]-3,3′-diyl)bis(methylene))bis(oxy))bis(2-((6-(1H-pyrazol-1-yl)pyridin-3-yl)methoxy)-5-chloro-4,1-phenylene))bis(methylene))bis(methylazanediyl))dipentanoic acid] in this work.
An IC50 of 0.04 to 20 nM was found for `Cc1c(COc2cc(OCc3cncc(C#N)c3)c(CN[C@H](C(=O)O)C(C)(C)O)cc2Cl)cccc1-c1cccc(COc2cc(OCc3cncc(C#N)c3)c(CN[C@H](C(=O)O)C(C)(C)O)cc2Cl)c1C` [Example 40090] in this work.
An IC50 of 0.04 to 20 nM was found for `Cc1c(OCCCNC2C[C@H](CO)[C@@H](O)[C@H]2O)cccc1-c1cccc(OCCCN[C@@H]2C[C@H](CO)[C@@H](O)[C@H]2O)c1C` (stereo partly drawn) [Example 2132, (1R,2S,5R)-3-((3-((3′-(3-(((1R,2S,3R,4R)-2,3-dihydroxy-4-(hydroxymethyl)cyclopentyl)amino)propoxy)-2,2′-dimethyl-[1,1′-biphenyl]-3-yl)oxy)propyl)amino)-5-(hydroxymethyl)cyclopentane-1,2-diol] in this work.
An IC50 of 0.04 to 20 nM was found for `Cc1c(COc2cc(OCc3cncc(C#N)c3)c(CN[C@H](CCO)C(=O)O)cc2Cl)cccc1-c1cccc(COc2cc(OCc3cncc(C#N)c3)c(CN[C@H](CCO)C(=O)O)cc2Cl)c1C` [Example 41090] in this work.
An IC50 of 0.04 to 20 nM was found for `Cc1c(OCCCN2CCC(O)(C(=O)O)CC2)cccc1-c1cccc(OCCCN2CCC(O)(C(=O)O)CC2)c1Cl` [Example 1002, 1,1′-(((2-chloro-2′-methyl-[1,1′-biphenyl]-3,3′-diyl)bis(oxy))bis(propane-3,1-diyl))bis(4-hydroxypiperidine-4-carboxylic acid)] in this work.
An IC50 of 90.1 to 1000 nM was found for `Cc1c(OCCCNCCc2cn(C)cn2)cccc1-c1cccc(OCCCN2CC[C@@H](O)C2)c1C` [Example 2043, (R)-1-(3-((2,2′-dimethyl-3′-(3-((2-(1-methyl-1H-imidazol-4-yl)ethyl)amino)propoxy)-[1,1′-biphenyl]-3-yl)oxy)propyl)pyrrolidin-3-ol] in this work.
An IC50 of 0.04 to 20 nM was found for `Cc1c(OCCCN[C@@H]2C[C@H](CO)[C@@H](O)[C@H]2O)cccc1-c1cccc(OCCCN[C@@H]2C[C@H](CO)[C@@H](O)[C@H]2O)c1C` [Example 2088, (1S,1′S,2R,2′R,3R,3′R,5R,5′R)-5,5′-((((2,2′-dimethyl-[1,1′-biphenyl]-3,3′-diyl)bis(oxy))bis(propane-3,1-diyl))bis(azanediyl))bis(3-(hydroxymethyl)cyclopentane-1,2-diol)] in this work.
An IC50 of 0.04 to 20 nM was found for `Cc1c(COc2cc(OCc3cncc(C#N)c3)c(CNC[C@H](O)CO)cc2Cl)cccc1-c1cccc(COc2cc(OCc3cncc(C#N)c3)c(CNC[C@H](O)CO)cc2Cl)c1C` [Example 2127, 5,5′-((((((2,2′-dimethyl-[1,1′-biphenyl]-3,3′-diyl)bis(methylene))bis(oxy))bis(4-chloro-6-((((S)-2,3-dihydroxypropyl)amino)methyl)-3,1-phenylene))bis(oxy))bis(methylene))dinicotinonitrile] in this work.
An IC50 of 0.04 to 20 nM was found for `Cc1c(COc2cc(OCc3cc(F)cc(F)c3)c(CNC(C)(CO)CO)cc2Cl)cccc1-c1cccc(COc2cc(OCc3cc(F)cc(F)c3)c(CNC(C)(CO)CO)cc2Cl)c1C` [Example 5007, 2,2′-((((((2,2′-dimethyl-[1,1′-biphenyl]-3,3′-diyl)bis(methylene))bis(oxy))bis(5-chloro-2-((3,5-difluorobenzyl)oxy)-4,1-phenylene))bis(methylene))bis(azanediyl))bis(2-methylpropane-1,3-diol)] in this work.
An IC50 of 0.04 to 20 nM was found for `Cc1c(COc2cc(OCc3ccc(-n4cccn4)nc3)c(CN(C)[C@@H](CCO)C(=O)O)cc2Cl)cccc1-c1cccc(COc2cc(OCc3ccc(-n4cccn4)nc3)c(CN(C)[C@@H](CCO)C(=O)O)cc2Cl)c1C` [Example 5025, (2S,2′S)-2,2′-((((((2,2′-dimethyl-[1,1′-biphenyl]-3,3′-diyl)bis(methylene))bis(oxy))bis(2-((6-(1H-pyrazol-1-yl)pyridin-3-yl)methoxy)-5-chloro-4,1-phenylene))bis(methylene))bis(methylazanediyl))bis(4-hydroxybutanoic acid)] in this work.
An IC50 of 0.04 to 20 nM was found for `N#Cc1cncc(COc2cc(OCc3cccc(-c4cccc(COc5cc(OCc6cncc(C#N)c6)c(CN6CCCC[C@H]6C(=O)O)cc5Cl)c4)c3)c(Cl)cc2CN2CCCC[C@H]2C(=O)O)c1` [Example 40050] in this work.
An IC50 of 20.1 to 90 nM was found for `N#Cc1cncc(COc2cc(OCc3cccc(-c4cccc(COc5cc(OCc6cncc(C#N)c6)c(CN6CCCC[C@H]6C(=O)O)cc5Cl)c4)c3)c(Cl)cc2CO)c1` [Example 50020] in this work.
An IC50 of 20.1 to 90 nM was found for `Cc1c(OCCCN(CCO)CCO)cccc1-c1cccc(OCCCN(CCO)CCO)c1C` [Example 2077, 2,2′,2″,2′″-((((2,2′-dimethyl-[1,1′-biphenyl]-3,3′-diyl)bis(oxy))bis(propane-3,1-diyl))bis(azanetriyl))tetrakis(ethan-1-ol)] in this work.
An IC50 of 0.04 to 20 nM was found for `Cc1c(COc2cc(OCc3cncc(C#N)c3)c(CNC(CCO)C(=O)O)cc2Cl)cccc1-c1cccc(COc2cc(OCc3cncc(C#N)c3)c(CN(CC3CCCO3)C(CCO)C(=O)O)cc2Cl)c1C` (stereo not shown) [Example 41030] in this work.
An IC50 of 0.04 to 20 nM was found for `Cc1c(OCCCNC[C@H](O)CO)cccc1-c1cccc(OCCCN[C@H](CO)[C@H](O)c2ccccc2)c1C` [Example 2098, (S)-3-((3-((3′-(3-(((1R,2R)-1,3-dihydroxy-1-phenylpropan-2-yl)amino)propoxy)-2,2′-dimethyl-[1,1′-biphenyl]-3-yl)oxy)propyl)amino)propane-1,2-diol] in this work.
An IC50 of 0.04 to 20 nM was found for `Cc1c(OCCCN2CC[C@@H](O)C2)cccc1-c1cccc(OCCCN2CC[C@H](CO)[C@H](O)C2)c1C` [Example 2033, (3S,4R)-4-(hydroxymethyl)-1-(3-((3′-(3-((R)-3-hydroxypyrrolidin-1-yl)propoxy)-2,2′-dimethyl-[1,1′-biphenyl]-3-yl)oxy)propyl)piperidin-3-ol] in this work.
An IC50 of 90.1 to 1000 nM was found for `Cc1c(OCCCN2CC[C@@H](O)C2)cccc1-c1cccc(OCCCN2CC[C@@H](O)C2)c1C(F)(F)F` [Example 3026, (3R,3′R)-1,1′-(((2-methyl-2′-(trifluoromethyl)-[1,1′-biphenyl]-3,3′-diyl)bis(oxy))bis(propane-3,1-diyl))bis(pyrrolidin-3-ol), 2 TFA] in this work.
